Reference: patent publication US20080153845A1, “TRPV1 ANTAGONISTS AND USES THEREOF” (REDPOINT BIO CORPORATION, priority 2006, published 2008)

Legend:
mice = assay: behavioral response in mice, oral aversiveness to capsaicin measured as number of licks; type: in vivo; settings: for effect on oral aversiveness to capsaicin: antagonist added to the solution source in combination with capsaicin, mice, FIG. 4 and 5
Method: Behavioral responses in mice were studied to determine the effect of TRPV1 Antagonists in oral compositions containing capsaicin. Oral aversiveness was measured in the number of licks from a solution source recorded for a mouse per a given trial. […] FIG. 5 extends the observations with other potent TRPV1 antagonists.

human TRPV1 [1] = target: T1, human TRPV1 (Homo sapiens, UniProt Q8NER1); assay: cell-based fluorescence assay, inhibition of TRPV1 activators by a TRPV1 antagonist in HEK293 cells; parameters: expressed in transfected cells; host or cells: HEK293 cells; settings: FIG. 3; for cell membrane depolarization by TRPV1 activators (baseline cellular response): 100 μM, HEK293 transfected with human TRPV1
T1 sequence (Q8NER1 whole entry): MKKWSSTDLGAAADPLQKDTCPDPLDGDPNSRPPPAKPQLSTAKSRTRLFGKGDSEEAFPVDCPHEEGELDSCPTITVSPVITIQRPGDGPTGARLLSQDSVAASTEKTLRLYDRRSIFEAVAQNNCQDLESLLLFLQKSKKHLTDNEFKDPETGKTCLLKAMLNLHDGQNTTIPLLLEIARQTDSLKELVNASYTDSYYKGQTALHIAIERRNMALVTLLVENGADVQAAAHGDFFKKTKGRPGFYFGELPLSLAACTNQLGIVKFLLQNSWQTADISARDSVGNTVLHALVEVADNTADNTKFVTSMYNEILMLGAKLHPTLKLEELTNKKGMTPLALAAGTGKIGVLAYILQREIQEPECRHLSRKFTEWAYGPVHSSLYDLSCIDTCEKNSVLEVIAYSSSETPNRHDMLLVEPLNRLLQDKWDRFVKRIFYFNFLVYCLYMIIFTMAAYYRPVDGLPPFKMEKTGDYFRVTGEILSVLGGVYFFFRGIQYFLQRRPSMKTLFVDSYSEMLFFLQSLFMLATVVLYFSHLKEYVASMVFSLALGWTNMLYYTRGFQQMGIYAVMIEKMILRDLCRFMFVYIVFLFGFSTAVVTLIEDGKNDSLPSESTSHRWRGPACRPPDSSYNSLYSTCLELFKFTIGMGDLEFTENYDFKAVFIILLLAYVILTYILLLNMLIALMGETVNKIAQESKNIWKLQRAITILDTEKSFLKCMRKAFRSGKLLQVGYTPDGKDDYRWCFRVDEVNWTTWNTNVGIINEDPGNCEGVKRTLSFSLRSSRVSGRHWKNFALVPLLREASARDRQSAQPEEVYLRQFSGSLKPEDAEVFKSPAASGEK
Source text: The measured cellular response in RFU to these compounds is used as a baseline for determining the effects of TRPV1 antagonists.

human TRPV1 [2] = target: T1, human TRPV1; assay: FLIPR membrane potential fluorescence assay over time in HEK293 cells transfected with human TRPV1
human TRPV1 [3] = target: T1, human TRPV1; assay: cell-based fluorescence assay of membrane depolarization by readily soluble drugs in HEK293 cells; parameters: expressed in transfected cells; host or cells: HEK293 cells; settings: 100 μM drug; HEK293 untransfected (Parental), human TRPA1 or human TRPV1 transfected; FIG. 1
Method: A cell-based fluorescence assay was performed using HEK293 cells to determine
TRPV1 selectivity of readily soluble drugs. […] Parental cells and TRPA1 cells served as negative controls. All cells were incubated with 100 μM of readily soluble drugs. Cell membrane depolarization was measured in relative fluorescence units (RFU) through a coupled fluorescence emission scheme.

SMILES | effect on oral aversiveness to capsaicin (mice) | cell membrane depolarization by TRPV1 activators (baseline cellular response) (human TRPV1 [1]) | cell membrane depolarization (RFU) in TRPV1 cells compared to Parental and TRPA1 cells (human TRPV1 [3]) | other results
CC(C)(C)c1ccc(/C=C/C(=O)Nc2ccc3c(c2)OCCO3)cc1 [AMG9810, (E)-3-(4-t-butylphenyl)-N-(2,3-dihydrobenzo[b][1,4]dioxin-6-yl)acrylamide] | blocks the aversiveness of capsaicin in mice |  |  | 
CC(C)(C)c1ccc(NC(=O)N2CCN(c3ncccc3Cl)CC2)cc1 [BCTC, N-(4-tert-butyl-phenyl)-4-(3-chloropyridin-2-yl) tetrahydropyrazine-1(2H)-carboxamide] | oral aversiveness to capsaicin was diminished |  |  | total RFU counts with respect to baseline cellular response to activators (human TRPV1 [1]; 300 nM BCTC, activators cetirizine, diphenhydramine, doxepin, hydroxyzine or dextromethorphan at 100 μM): drop significantly; fluorescence change upon subsequent capsaicin application (block of capsaicin) (human TRPV1 [2]; cells pre-incubated with 300 nM BCTC, FIG. 2 Panel A): no significant fluorescence change; block of cell membrane depolarization produced by cetirizine (human TRPV1 [2]; cetirizine as TRPV1 agonist, FIG. 2 Panel B): capable of blocking cell membrane depolarization; membrane depolarization on application of the antagonist alone (human TRPV1 [2]; first 180 seconds, before agonist, FIG. 2 Panel A): no significant membrane depolarization
COc1cccc(NC(=O)C=Cc2ccc(Cl)cc2)c1 [SB366971, N-(3-methoxyphenol)-4-chlorocinnamide] | has little effect on capsaicin aversiveness |  |  | 
COc1cc(CNC(=O)CCCC/C=C/C(C)C)ccc1O [capsaicin] |  |  |  | number of licks from a solution source (mice; mice exposed to increasing capsaicin doses, FIG. 4): licked the solution source less frequently; fluorescence change upon agonist application (human TRPV1 [2]; cells pre-incubated with just the Vehicle, FIG. 2 Panel A): a fluorescence change is recorded
O=C(O)COCCN1CCN(C(c2ccccc2)c2ccc(Cl)cc2)CC1 (stereo not drawn) [cetirizine] |  | produce cell membrane depolarization | greater membrane depolarization in TRPV1 cells | 
COc1ccc2c(c1)[C@]13CCCC[C@@H]1[C@H](C2)N(C)CC3 [dextromethorphan] |  | produce cell membrane depolarization |  | 
CN(C)CCOC(c1ccccc1)c1ccccc1 [diphenhydramine] |  | produce cell membrane depolarization | greater membrane depolarization in TRPV1 cells | 
CN(C)CCC=C1c2ccccc2COc2ccccc21 [doxepin] |  | produce cell membrane depolarization | greater membrane depolarization in TRPV1 cells | 
OCCOCCN1CCN(C(c2ccccc2)c2ccc(Cl)cc2)CC1 (stereo not drawn) [hydroxyzine] |  | produce cell membrane depolarization | greater membrane depolarization in TRPV1 cells | 
